Measured values: US20090325923A1, “NEW METHOD FOR THE TREATMENT OF INFLAMMATORY DISEASES” (TOPOTARGET SWITZERLAND SA, priority 2006, published 2009)

Legend:
[1] = Toxicity and tolerability in treated CIA mice (weight, histopathology, ALT, hematology); type: in vivo, mouse
Description: Test mice (n=20) were twice daily treated ip with 10 mg/kg of FK866 from the first day onward of appearance of clinical arthritis (clinical score>1) during 14 days. Placebo mice (n=20) received vehicle only. Groups of animals were compared with respect to variation of their clinical scoring, and of their weight (d) by statistical analysis using the two-way ANOVA. A semi-quantitative histological evaluation was performed on the knee sections using a 4 points (0-3) scoring system to evaluate inflammatory infiltrate and synovial hyperplasia. (c) Circulating SAA levels: Sera from placebo- and FK866-treated CIA mice at day 14 (n=8 and n=7, respectively) were prepared and analyzed by SAA ELISA according to the manufacturer's instructions.

TNFα = assay: Serum TNFα after LPS challenge (endotoxemia); type: in vivo, mouse; conditions: 10 mg/kg ip 7 h before ip LPS, bled 90 min later, vs placebo
Description: Mice were treated with thioglycollate to elicit PEC, and then received 10 mg/kg FK866 or placebo by ip injection 7 h before ip challenge with LPS. Mean serum TNFα at 90 min+sem of 3 mice per group is shown. PEC were obtained by lavage and intracellular NAD was determined. Data are mean±sem of 3 mice per group.
This example illustrates that NAMPT inhibition reduces circulating TNFα during endotoxemia and correlates with diminished intracellular NAD in inflammatory cells. Naïve mice were treated ip with thioglycollate to elicit inflammatory cells, and then were treated ip with placebo or 10 mg/kg FK866 7 h before an intraperitoneal injection of LPS. Mice were bled 90 min later for evaluation of serum TNFα levels.

O=C(/C=C/c1cccnc1)NCCCCC1CCN(C(=O)c2ccccc2)CC1 [FK866, (E)-N-[4-(1-benzoylpiperidin-4-yl)butyl]-3-(pyridine-3-yl)-acrylamide]
tolerability ([1]; CIA mice, 10 mg/kg ip twice daily): well tolerated | signs of toxicity ([1]; CIA mice, 10 mg/kg ip twice daily, 14 days): no signs of toxicity | % LYMPHO, mean ([1]; hematology of treated CIA mice): 60% | % MONO, mean ([1]; hematology of treated CIA mice): 10.4% | % NEUTRO, mean ([1]; hematology of treated CIA mice): 29.7% | HCT, mean ([1]; hematology of treated CIA mice): 52.8% | HGB, mean ([1]; hematology of treated CIA mice): 14.1 g/dL | PLT, mean ([1]; hematology of treated CIA mice): 1688 10^3/mm^3 | RBC, mean ([1]; hematology of treated CIA mice): 9.4 10^3/mm^3 | WBC, mean ([1]; hematology of treated CIA mice): 11.5 10^6/mm^3 | weight of the mice ([1]; placebo- vs FK866-treated groups): comparable | premature death ([1]; treated group): no premature death | hematological examination ([1]; treated vs control mice): similarity between the treated and control mice | histopathology of liver, spleen, lung, gut, kidney, inguinal lymph nodes and brain ([1]; vs control animals): no different from control animals | circulating (serum) TNFα levels (TNFα): significant decrease
